Reference: ChEMBL document CHEMBL4229348, “Structure-activity relationship studies of ultra-short peptides with potent activities against fluconazole-resistant Candida albicans” (Eur J Med Chem, 2018)
Values after ≈ are worked out from the molar mass of the structure shown. Active and inactive are the calls of the source. The rule behind the calls is not given here. Peptide text beside a SMILES is read from it.

How the values were obtained:
Candida albicans [1] = assay: Antifungal activity against fluconazole-resistant Candida albicans ATCC 64550 after overnight incubation by CLSI broth microdilution method; format: functional
[2] = Retention time of the compound at 0.4 mM by HPLC analysis; format: physicochemical; conditions: 400 µM
Candida albicans [3] = assay: Antifungal activity against fluconazole-resistant Candida albicans ATCC MYA-573 after overnight incubation by CLSI broth microdilution method; format: functional
Candida albicans [4] = assay: Antifungal activity against fluconazole-resistant Candida albicans ATCC 64124 after overnight incubation by CLSI broth microdilution method; format: functional
Candida albicans [5] = assay: Antifungal activity against fluconazole-resistant Candida albicans ATCC 96901 after overnight incubation by CLSI broth microdilution method; format: functional
Candida albicans [6] = assay: Antifungal activity against fluconazole-resistant Candida albicans ATCC 200955 after overnight incubation by CLSI broth microdilution method; format: functional
Candida albicans [7] = assay: Antifungal activity against fluconazole-resistant Candida albicans NUH-K6004 after overnight incubation by CLSI broth microdilution method; format: functional
Candida albicans [8] = assay: Antifungal activity against fluconazole-resistant Candida albicans TTSH-CALB01 after overnight incubation by CLSI broth microdilution method; format: functional
Candida albicans [9] = assay: Antifungal activity against fluconazole-resistant Candida albicans TTSH-CALB02 after overnight incubation by CLSI broth microdilution method; format: functional
Saccharomyces cerevisiae [10] = assay: Induction of membrane permeabilization in Saccharomyces cerevisiae BY4743 assessed as propidium iodide uptake at 23 uM preincubated for 2.5 hrs followed by propidium iodide addition and measured after 20 mins by bright-field and fluorescence microscopic analysis (reference value: 98%); format: functional
Candida albicans [11] = assay: Fungicidal activity against fluconazole-resistant Candida albicans ATCC 64550 at 4 times MIC incubated for overnight flowed by replating and measured after 24 hrs; format: functional, organism-based
NHDF = assay: Cytotoxicity against NHDF assessed as reduction in cell viability up to 200 uM after 5 days by CellTiter-Glo assay; format: cell-based; conditions: human, 120 h
Saccharomyces cerevisiae [12] = assay: Induction of membrane permeabilization in Saccharomyces cerevisiae BY4743 assessed as propidium iodide uptake at 46 uM preincubated for 2.5 hrs followed by propidium iodide addition and measured after 20 mins by bright-field and fluorescence microscopic analysis (reference value: 98%); format: functional
Saccharomyces cerevisiae [13] = assay: Growth inhibition of Saccharomyces cerevisiae BY4743 incubated for 16 to 24 hrs; format: functional
Candida albicans [14] = assay: Potency index, ratio of omiganan MIC to compound MIC for antifungal activity against fluconazole-resistant Candida albicans ATCC 64550; format: functional
Candida albicans [15] = assay: Antifungal activity against fluconazole-susceptible Candida albicans; format: functional

Row | Molecule | MIC (Candida albicans [1]) [µM] | Retention_time [2] [min] | MIC (Candida albicans [3]) [µM] | MIC (Candida albicans [4]) [µM] | MIC (Candida albicans [5]) [µM] | MIC (Candida albicans [6]) [µM] | MIC (Candida albicans [7]) [µM] | MIC (Candida albicans [8]) [µM] | MIC (Candida albicans [9]) [µM] | Activity (Saccharomyces cerevisiae [10]) [%] | Activity (Candida albicans [11]) | Activity (NHDF) | Activity (Saccharomyces cerevisiae [12]) [%] | GI50 (Saccharomyces cerevisiae [13]) [µM] | TGI (Saccharomyces cerevisiae [13]; read-out: GI100) [µM] | Ratio (Candida albicans [14]) | MIC (Candida albicans [15]) [µM]
1 | CCCC[C@H](NC(=O)[C@H](CCCCN)NC(=O)[C@H](CCCC)NC(=O)[C@H](CCCCN)NC(=O)[C@H](CCCC)NC(=O)[C@H](CCCCN)NC(=O)[C@@H](N)CCCC)C(=O)N[C@@H](CCCCN)C(N)=O (HELM PEPTIDE1{[Nle].K.[Nle].K.[Nle].K.[Nle].K.[am]}$$$$V2.0) | 1.56 (≈ 1.53 µg/mL) | 14 | 3.13 (≈ 3.07 µg/mL) | 3.13 (≈ 3.07 µg/mL) | 1.56 (≈ 1.53 µg/mL) | 1.56 (≈ 1.53 µg/mL) | 1.56 (≈ 1.53 µg/mL) | 1.56 (≈ 1.53 µg/mL) | 1.56 (≈ 1.53 µg/mL) | 75 | Active | Non-Toxic | 100 | 5.75 | 5.75 |  | 
2 | H-IKIKIKIK-NH2 | 3.13 | 13.4 |  |  |  |  |  |  |  |  |  |  |  |  |  | 16 | 1.56
